Measured values as given in ChEMBL document CHEMBL4387716, “Discovery of trans-3-(pyridin-3-yl)acrylamide-derived sulfamides as potent nicotinamide phosphoribosyltransferase (NAMPT) inhibitors for the potential treatment of cancer” (Bioorg Med Chem Lett, 2019).

How the values were obtained:
[1] = target: Nicotinamide phosphoribosyltransferase (Homo sapiens, UniProt P43490); assay: Inhibition of recombinant NAMPT (unknown origin) using NAM and PRPP as substrates incubated for 60 mins in presence of NMNAT1 measured at 5 mins interval for 30 mins by WST1 assay
K562 = assay: Antiproliferative activity against human K562 cells assessed as inhibition of cell growth after 72 hrs by CCK-8 assay; assay type: functional, cell-based; conditions: K562, 72 h
MCF7 = assay: Antiproliferative activity against human MCF7 cells assessed as inhibition of cell growth after 72 hrs by CCK-8 assay; assay type: functional, cell-based; conditions: MCF7, 72 h
DU-145 = assay: Antiproliferative activity against human DU145 cells assessed as inhibition of cell growth after 72 hrs by CCK-8 assay; assay type: functional, cell-based; conditions: DU-145, 72 h
HeLa = assay: Antiproliferative activity against human HeLa cells assessed as inhibition of cell growth after 72 hrs by CCK-8 assay; assay type: functional, cell-based
NCI-H1975 = assay: Antiproliferative activity against human NCI-H1975 cells harboring EGFR L858R/T790M mutation assessed as inhibition of cell growth after 72 hrs by CCK-8 assay; assay type: functional, cell-based; conditions: NCI-H1975, 72 h
Huh-7 = assay: Antiproliferative activity against human HuH7 cells assessed as inhibition of cell growth after 72 hrs by CCK-8 assay; assay type: functional, cell-based; conditions: Huh-7, 72 h

Nicotinamide phosphoribosyltransferase, sequence (P43490 whole entry): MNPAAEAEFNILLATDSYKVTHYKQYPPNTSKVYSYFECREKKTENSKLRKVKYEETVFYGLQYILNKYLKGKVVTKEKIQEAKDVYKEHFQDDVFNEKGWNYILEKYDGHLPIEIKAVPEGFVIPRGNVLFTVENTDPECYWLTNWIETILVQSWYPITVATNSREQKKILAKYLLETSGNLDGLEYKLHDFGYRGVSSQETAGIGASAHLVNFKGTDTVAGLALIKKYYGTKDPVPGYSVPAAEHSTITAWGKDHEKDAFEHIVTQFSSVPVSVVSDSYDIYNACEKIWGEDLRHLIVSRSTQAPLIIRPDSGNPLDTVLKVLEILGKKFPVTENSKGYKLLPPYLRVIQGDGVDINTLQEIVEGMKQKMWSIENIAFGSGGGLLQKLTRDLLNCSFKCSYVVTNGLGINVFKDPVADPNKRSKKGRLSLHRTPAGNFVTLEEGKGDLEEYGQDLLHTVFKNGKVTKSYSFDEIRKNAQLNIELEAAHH

O=C(/C=C/c1cccnc1)NCCCCCCCc1ccc(S(=O)(=O)Nc2ccccc2)cc1 showed an IC50 [1] of 16.4 nM, an IC50 (K562) of 56.5 nM and an IC50 (MCF7) of 37.6 nM. It also gave an IC50 (DU-145) of 438 nM, an IC50 (HeLa) of 223 nM and an IC50 (NCI-H1975) of 330 nM. The IC50 (Huh-7) was 1220 nM.

Work on O=C(/C=C/c1cccnc1)NCCCCCCc1ccc(S(=O)(=O)Nc2ccccc2)cc1 yielded an IC50 [1] of 14.4 nM, an IC50 (K562) of 48.5 nM and an IC50 (MCF7) of 36 nM. It also gave an IC50 (DU-145) of 328 nM, an IC50 (HeLa) of 377 nM and an IC50 (NCI-H1975) of 239 nM. For the same compound, the IC50 (Huh-7) was 112 nM.

Cc1ccc(NS(=O)(=O)c2cccc(CCCCCCNC(=O)/C=C/c3cccnc3)c2)cc1 gave an IC50 [1] of 9.78 nM, an IC50 (K562) of 2.98 nM and an IC50 (MCF7) of 1.97 nM. For the same compound, the IC50 (DU-145) was 34.4 nM, the IC50 (HeLa) was 38.8 nM and the IC50 (NCI-H1975) was 17.1 nM. It also gave an IC50 (Huh-7) of 6.92 nM.

O=C(/C=C/c1cccnc1)NCCCCCCc1cccc(S(=O)(=O)Nc2ccc(F)c(Cl)c2)c1 gave an IC50 [1] of 9.7 nM, an IC50 (K562) of 5.31 nM and an IC50 (MCF7) of 6.3 nM. For the same compound, the IC50 (DU-145) was 150 nM, the IC50 (HeLa) was 385 nM and the IC50 (NCI-H1975) was 25 nM. The IC50 (Huh-7) was 39.4 nM.

In the case of O=C(/C=C/c1cccnc1)NCCCc1cccc(S(=O)(=O)Nc2ccccc2)c1, the IC50 [1] is reported as 235 nM, the IC50 (K562) is reported as 86.8 nM and the IC50 (MCF7) is reported as 142 nM. The IC50 (DU-145) was 165 nM, the IC50 (HeLa) was 115 nM and the IC50 (NCI-H1975) was 261 nM. For the same compound, the IC50 (Huh-7) was 384 nM.

With CCc1ccc(NS(=O)(=O)c2cccc(CCCCCCNC(=O)/C=C/c3cccnc3)c2)cc1 the IC50 [1] was 31.5 nM, the IC50 (K562) was 3.89 nM and the IC50 (MCF7) was 3.64 nM. It also gave an IC50 (DU-145) of 40.1 nM, an IC50 (HeLa) of 132 nM and an IC50 (NCI-H1975) of 33.4 nM. It also gave an IC50 (Huh-7) of 34.6 nM.

Cc1cccc(NS(=O)(=O)c2cccc(CCCCCCNC(=O)/C=C/c3cccnc3)c2)c1 gave an IC50 [1] of 12.3 nM, an IC50 (K562) of 4.78 nM and an IC50 (MCF7) of 4 nM. The IC50 (DU-145) was 41.7 nM, the IC50 (HeLa) was 65.8 nM and the IC50 (NCI-H1975) was 40.7 nM. The IC50 (Huh-7) was 13.2 nM.

Compound O=C(/C=C/c1cccnc1)NCCCCCCc1cccc(S(=O)(=O)Nc2ccc(C(F)(F)F)cc2)c1 has an IC50 [1] of 24.5 nM, an IC50 (K562) of 44.9 nM and an IC50 (MCF7) of 67.8 nM. It also gave an IC50 (DU-145) of 1410 nM, an IC50 (HeLa) of 1450 nM and an IC50 (NCI-H1975) of 175 nM. The IC50 (Huh-7) was 164 nM.

For Cc1ccccc1NS(=O)(=O)c1cccc(CCCCCCNC(=O)/C=C/c2cccnc2)c1, the IC50 [1] was 5.08 nM, the IC50 (K562) was 0.456 to 0.46 nM and the IC50 (MCF7) was 0.226 to 0.23 nM. It also gave an IC50 (DU-145) of 2.9 nM, an IC50 (HeLa) of 2.34 nM and an IC50 (NCI-H1975) of 2.24 nM. For the same compound, the IC50 (Huh-7) was 0.525 to 0.53 nM.

Work on O=C(/C=C/c1cccnc1)NCCCCCc1cccc(S(=O)(=O)Nc2ccccc2)c1 yielded an IC50 [1] of 16.5 nM, an IC50 (K562) of 16.2 nM and an IC50 (MCF7) of 12.5 nM. It also gave an IC50 (DU-145) of 140 nM, an IC50 (HeLa) of 105 nM and an IC50 (NCI-H1975) of 146 nM. The IC50 (Huh-7) was 41.1 nM.

For O=C(/C=C/c1cccnc1)NCCCCCc1ccc(S(=O)(=O)Nc2ccccc2)cc1, the IC50 [1] was 28.4 nM, the IC50 (K562) was 146 nM and the IC50 (MCF7) was 95.7 nM. It also gave an IC50 (DU-145) of 581 nM, an IC50 (HeLa) of 333 nM and an IC50 (NCI-H1975) of 778 nM. The IC50 (Huh-7) was 408 nM.

With O=C(/C=C/c1cccnc1)NCCCCCCCc1cccc(S(=O)(=O)Nc2ccccc2)c1 the IC50 [1] was 31.3 nM, the IC50 (K562) was 61.1 nM and the IC50 (MCF7) was 42.6 nM. The IC50 (DU-145) was 429 nM, the IC50 (HeLa) was 598 nM and the IC50 (NCI-H1975) was 316 nM. For the same compound, the IC50 (Huh-7) was 138 nM.

Compound O=C(/C=C/c1cccnc1)NCCCCCCc1cccc(S(=O)(=O)Nc2ccc(Oc3ccccc3)cc2)c1 has an IC50 [1] of 13.1 nM, an IC50 (K562) of 5.12 nM and an IC50 (MCF7) of 3.84 nM. For the same compound, the IC50 (DU-145) was 50.9 nM, the IC50 (HeLa) was 262 nM and the IC50 (NCI-H1975) was 25.6 nM. It also gave an IC50 (Huh-7) of 32.7 nM.

O=C(/C=C/c1cccnc1)NCCCCCCc1cccc(S(=O)(=O)Nc2ccc(Cl)cc2)c1 gave an IC50 [1] of 10.8 nM, an IC50 (K562) of 6.41 nM and an IC50 (MCF7) of 5.94 nM. For the same compound, the IC50 (DU-145) was 84.4 nM, the IC50 (HeLa) was 170 nM and the IC50 (NCI-H1975) was 33.3 nM. For the same compound, the IC50 (Huh-7) was 24.1 nM.

O=C(/C=C/c1cccnc1)NCCCCCCc1cccc(S(=O)(=O)Nc2ccccc2)c1 showed an IC50 [1] of 10.5 nM, an IC50 (K562) of 0.88 nM and an IC50 (MCF7) of 0.63 nM. The IC50 (DU-145) was 6.73 nM, the IC50 (HeLa) was 30.4 nM and the IC50 (NCI-H1975) was 6.37 nM. The IC50 (Huh-7) was 2.82 nM.

In the case of CC(C)(C)c1ccc(NS(=O)(=O)c2cccc(CCCCCCNC(=O)/C=C/c3cccnc3)c2)cc1, the IC50 [1] is reported as 9.47 nM, the IC50 (K562) is reported as 24.7 nM and the IC50 (MCF7) is reported as 26.3 nM. The IC50 (DU-145) was 281 nM, the IC50 (HeLa) was 1520 nM and the IC50 (NCI-H1975) was 157 nM. The IC50 (Huh-7) was 163 nM.

For O=C(/C=C/c1cccnc1)NCCCCc1ccc(S(=O)(=O)Nc2ccccc2)cc1, the IC50 [1] was 17.8 nM, the IC50 (K562) was 9.56 nM and the IC50 (MCF7) was 5.03 nM. For the same compound, the IC50 (DU-145) was 47.9 nM, the IC50 (HeLa) was 184 nM and the IC50 (NCI-H1975) was 63.6 nM. It also gave an IC50 (Huh-7) of 24.2 nM.

Work on O=C(/C=C/c1cccnc1)NCCCc1ccc(S(=O)(=O)Nc2ccccc2)cc1 yielded an IC50 [1] of 5920 nM, an IC50 (K562) of 4900 nM and an IC50 (MCF7) of 4120 nM. The IC50 (DU-145) was > 10000 nM, the IC50 (HeLa) was > 10000 nM and the IC50 (NCI-H1975) was > 10000 nM. The IC50 (Huh-7) was > 10000 nM.

Cc1ccc(C)c(NS(=O)(=O)c2cccc(CCCCCCNC(=O)/C=C/c3cccnc3)c2)c1 gave an IC50 [1] of 11.6 nM, an IC50 (K562) of 0.84 nM and an IC50 (MCF7) of 0.6 nM. It also gave an IC50 (DU-145) of 7.48 nM, an IC50 (HeLa) of 22.6 nM and an IC50 (NCI-H1975) of 4.88 nM. It also gave an IC50 (Huh-7) of 2.58 nM.

O=C(/C=C/c1cccnc1)NCCCCCCc1cccc(S(=O)(=O)Nc2ccc(F)cc2)c1 was tested, and the IC50 [1] was 9.2 nM, the IC50 (K562) was 0.93 nM and the IC50 (MCF7) was 0.91 nM. It also gave an IC50 (DU-145) of 10.6 nM, an IC50 (HeLa) of 99.9 nM and an IC50 (NCI-H1975) of 1.34 nM. It also gave an IC50 (Huh-7) of 4.28 nM.

Compound O=C(/C=C/c1cccnc1)NCCCCC1CCN(C(=O)c2ccccc2)CC1 [DAPORINAD] has an IC50 (K562) of 0.96 nM, an IC50 (MCF7) of 0.41 nM and an IC50 (DU-145) of 5.12 nM. It also gave an IC50 (HeLa) of 3.75 nM, an IC50 (NCI-H1975) of 4.76 nM and an IC50 (Huh-7) of 1.05 nM.
